According to the NIST ThermoML archive (doi:10.1016/j.jct.2013.11.028):
± gives the expanded uncertainty stated by the source.

How the values were obtained:
[1] = refractive index (Na D-line) (dimensionless); conditions: 298.2 K; 101.33 kPa; Liquid; Standard Abbe refractometry
[2] = 298.2 K; 101.33 kPa; Liquid; Vibrating tube method

Question: Which refractive index [1] does the source give for `CCCCO` [butan-1-ol] here?
Answer: 1.3968 ± 0.0008

Question: And the mass density [2]?
Answer: 805.6 ± 0.24 kg/m3

Question: What does the source list for `CCCCCO` [pentan-1-ol]?
Answer: refractive index [1]: 1.4073 ± 0.0008; mass density [2]: 810.92 ± 0.24 kg/m3

Question: For `CCCC(=O)O` [butanoic acid], which refractive index [1] is on record?
Answer: 1.3977 ± 0.0008

Question: And the mass density [2]?
Answer: 952.68 ± 0.23 kg/m3

Question: Which refractive index [1] does the source give for `CC(C)CCO` [3-methylbutan-1-ol] here?
Answer: 1.4085 ± 0.0008

Question: What about the mass density [2] of the same compound?
Answer: 809.05 ± 0.4 kg/m3

Question: With `O` [water] as the compound, how does the refractive index [1] read?
Answer: 1.3325 ± 0.0008
